What was measured:
[1] = test system: human primary hepatocytes; experiment: Expansion of human primary hepatocytes on growth-arrested J2-3T3 feeder layer in 12-well plates (imaging, cell counting, FACS, biochemical assays); format: cell-based; details: 20 μM on days 1 and 5, 7 days culture
Method: (§1) Culture media were collected and frozen at −20° C. until analysis. Albumin content was measured through sandwich ELISA assays (MP Biomedicals, Fitzgerald, Bethyl Laboratories) using horseradish peroxidase detection and 3,3′,5,5′-tetramethylbenzidine (TMB, Fitzgerald Industries) as a substrate. Urea concentration was determined colorimetrically using diacetylmonoxime with acid and heat (Stanbio Labs). To quantify CYP450 activity, at 48 hours after small molecule exposure, cultures were incubated with substrates (coumarin from Sigma for CYP2A6, luciferin-IPA from Promega for CYP3A4) for 4 hours at 37° C. Incubation medium was collected and metabolite concentration quantified via luminescence, or fluorescence after hydrolization of potential metabolite conjugates by β-glucuronidase/arylsulfatase (Roche, Ind.).
To characterize the effects of FPH1 and FPH2 outside of the screening platform, human primary hepatocytes were seeded at a density of ˜20,000 cells/cm^2, into standard 12-well tissue culture plates on top of a feeder layer of growth-arrested J2-3T3s. These cells were cultured for 7 days, during which time a single compound/FPH was supplemented into the media on days 1 and 5 at a concentration of 20 μM. Treated hepatocyte colonies increased in size over time, with more hepatocytes populating each colony (FIG. 2D, 2E).
To characterize the degree of proliferation and to obtain a doubling time, cells were counted and fluorescence-activated cell sorting (FACS) was performed (FIG. 2H). For cell counting, FPH-treated cells were trypsinized after seven days in culture. The number of cells was quantified using an automated cell counter. The number of hepatocytes was obtained by subtracting the number of fibroblasts from the total number of cells found in the corresponding co-culture. For FACS analysis, growth arrested J2-3T3s were labeled with CM-DiI prior to initiation of co-culture so that hepatocytes can be identified via negative selection. To enable cell counting during FACS, each sample was supplemented with fluorescent counting beads. […] Over 7 days, FPH1 induced hepatocyte doublings at a rate that is consistent with reported liver regeneration kinetics in vivo.
To assess the phenotype of the treated hepatocytes, imaging, biochemical analyses and gene expression profiling were performed. […] Albumin secretion and urea synthesis, a surrogate marker of nitrogen metabolism, were both stable throughout FPH treatment (FIG. 3A top and middle). Metabolic functions were assessed via examinations of cytochrome P450 (CYP450) activity and canalicular transport. […] Gene expression profiling confirmed that there are no significant differences between FPH-treated and untreated hepatocytes (FIG. 3C).

[2] = test system: primary human hepatocytes; experiment: Expansion of primary human hepatocytes from six additional cell sources (Ki67/albumin staining, FACS); format: cell-based
Method: On day seven, the number of hepatocytes was quantified by FACS analysis (FIG. 6B). Day one untreated controls was added to the bar graph for reference.

[3] = test system: iHeps; experiment: CYP450 activities of treated iHeps through isoenzyme-specific probes; format: cell-based, human
Method: as §1
The ability of compounds of the invention to affect the differentiation and maturation of iHeps was tested. Undifferentiated iPS cells were cultured on Matrigel, supported by primary mouse embryonic fibroblasts. […]
To confirm the staining results, secreted levels of albumin and AFP via ELISA, and CYP450 activities through isoenzyme-specific probes that are either fluorescent or luminescent were measured. […]

[4] = test system: iPS-derived endothelial cells; experiment: Differentiation of iPS-derived endothelial cells (nitric oxide); format: cell-based
Method: Cells were assayed for nitric oxide (NO), a mature marker for endothelial cells. CB=FPH2, M=FH1, E=PH1, while Null and DMSO are control runs with no additive and vehicle only, respectively.

[5] = test system: human primary hepatocytes; experiment: High-throughput liver platform, primary screening: secreted albumin by competitive ELISA; format: cell-based
Excerpt: In order to evaluate the phenotype of treated cells, a secondary readout was included to quantify hepatocyte functions via competitive ELISA. This biochemical assay measured the level of secreted albumin as a marker for protein synthesis functions of the cultured hepatocytes (FIG. 1A bottom).
FIG. 1B top summarizes the workflow of the screen. Primary screening was done on human primary hepatocytes, preconditioned for seven days by non-parenchymal cells in the screening platform. Upon stabilization in vitro, cultures were treated with the chemical library for 48 hours. All compounds were tested in duplicates, at a single concentration of 15 μM. This single concentration was selected via a pilot screen of ˜2,000 small molecules. All 12,480 small molecules were initially tested on a single donor of cryopreserved hepatocytes (donor a) in order to eliminate noise from donor-to-donor variability. Following compound treatment, media supernatants were collected for functional analyses via ELISA and cultures were fixed in 4% paraformaldehyde for proliferation analyses via imaging.

[6] = test system: iHeps; experiment: Differentiation of human iPS-derived hepatocytes (iHeps): morphology and immunofluorescent staining; format: cell-based
Method: The ability of compounds of the invention to affect the differentiation and maturation of iHeps was tested. Undifferentiated iPS cells were cultured on Matrigel, supported by primary mouse embryonic fibroblasts. Once confluent, iPS cells were transitioned to differentiation media, with sequential addition of growth factors (Activin A, BMP-4, bFGF, HGF, and OSM) to guide differentiation, first into endoderm, then into hepatic progenitor cells and finally into iHeps. Compound treatment started on day 21 post initiation of differentiation and acted over a period of 9 days. FH1 and FPH2 were used to treat iHeps. FH1 doubled albumin secretion during primary screening (FIG. 4A left) in a dose-responsive manner (FIG. 4A right).
To examine the effects of FH1 and FPH2 at the protein level, AFP, albumin and CYP3A4 levels weew visualized via immunofluorescent staining. […] This is in agreement with primary screening results as well as earlier morphological findings. Untreated cultures had islands that double stain for albumin and the fetal marker AFP, with very little presence of the mature marker CYP3A4.

## Cc1ccc(Cl)cc1N(CC(=O)Nc1c(F)cccc1F)S(C)(=O)=O [FPH2, 2-(N-(5-chloro-2-methylphenyl)methylsulfonamido)-N-(2,6-difluorophenyl)acetamide]
[1]
  Ki67 staining / number of Ki67-positive nuclei: more elevated
  increase in the area of albumin-positive colonies: ≤ 3.5 fold
[2]; day seven, all donors
  number of hepatocytes by FACS: increase
[2]; six additional cell sources, six days in culture
  Ki67 staining co-localized with albumin labeled hepatocytes: increased
[3]
  CYP3A4 activity increase: 45 times
[4]
  differentiation of iPS-derived endothelial cells (nitric oxide): induce differentiation
[5]
  albumin secretion during primary screening: similar, but weaker effects
[6]; treated iHeps
  albumin staining (immunofluorescent): dramatic increases
[6]; treatment from day 21, 9 days
  hepatocyte phenotype of treated iHeps: more mature hepatocyte phenotypes
